The source of these data is US8399712B2 (priority 2010, dated 2013).

Series [1] is classed as physicochemical. Conditions: slurrying in water at ambient, after 5 minutes.
The nature of series [2]: Attempted intrinsic dissolution of cocrystal 3 in 900 mL water. The class given is physicochemical. The settings on record: 900 mL water at ambient conditions, after 30 minutes. As for the experimental part:
Intrinsic dissolution in 900 mL water at ambient conditions was also attempted. […] Therefore, a concentration vs. time and intrinsic dissolution rate value were unobtainable at these conditions.

Series [3] in a line: Relative humidity stability, saturated salt solutions at ambient temperature, XRPD. The class given is physicochemical. Conditions: for Dissociation by XRPD: 75, 94, or 98% RH after four weeks. The text has this: Upon completion of the duration allowed, the samples were immediately analyzed by XRPD.
A short description of series [4]: Slurrying in water, resulting solid form. The format is physicochemical. The settings on record: for Behaviour upon slurrying in water: three days.
The subject of series [5] is hyperglycemic rats. The settings on record: cited from earlier work.
Series [6] has as its system cancer cell lines. The settings on record: in vitro; cited from earlier work.
For series [7] the following is noted: literature; cited from earlier work.
The conditions of series [8]: literature (Lopez-Nicolas 2009); cited from earlier work.

Turning to “pterostilbene:glutaric acid [cocrystal 3]”, the “XRPD result of attempted powder dissolution” value in series [1] was “crystalline pterostilbene”. The “XRPD result of attempted intrinsic dissolution” value in series [2] is listed as “crystalline pterostilbene”. The “Dissociation by XRPD” value in series [3] is “no dissociation”.

As to “pterostilbene:carbamazepine [cocrystal 2]”, the “Results (form by XRPD)” value in series [3] (75% RH, 1 week) is listed as “cocrystal 2, no carbamazepine dihydrate”; in series [3] (75% RH, 4 weeks), “cocrystal 2, no carbamazepine dihydrate”; in series [3] (75% RH, 1 day) it was “cocrystal 2, no carbamazepine dihydrate”; in series [3] (75% RH, 3 days), “cocrystal 2, no carbamazepine dihydrate”; in series [3] (94% RH, 1 week (7 days)), “cocrystal 2, no carbamazepine dihydrate”; in series [3] (94% RH, 4 weeks), “cocrystal 2, no carbamazepine dihydrate”. In addition, the “Results (form by XRPD)” value in series [3] (94% RH, 1 day) was “cocrystal 2, no carbamazepine dihydrate”; in series [3] (94% RH, 3 days), “cocrystal 2, no carbamazepine dihydrate”; in series [3] (98% RH, 1 week), “cocrystal 2, no carbamazepine dihydrate”; in series [3] (98% RH, 4 weeks), “cocrystal 2, no carbamazepine dihydrate”; in series [3] (98% RH, 1 day), “cocrystal 2, no carbamazepine dihydrate”; in series [3] (98% RH, 3 days), “cocrystal 2, no carbamazepine dihydrate”. Besides, the “Behaviour upon slurrying in water” value in series [4] was “stable”.

For the compound `COc1cc(/C=C/c2ccc(O)cc2)cc(OC)c1.Cn1c(=O)c2c(ncn2C)n(C)c1=O` [cocrystal 1, pterostilbene:caffeine], the “Dissociation by XRPD” value in series [3] is recorded as “no dissociation”.

In the case of `CN(C)C(=N)N=C(N)N` [metformin], the “Decrease of plasma glucose levels” value in series [5] is recorded as 48%.

In the case of `COc1cc(/C=C/c2ccc(O)cc2)cc(OC)c1` [pterostilbene, trans-3,5-dimethoxy-4′-hydroxystilbene], the “Cytotoxic activity against cancer cell lines” value in series [6] is on record as “demonstrated cytotoxic activity”. Also, in series [7], the Bioavailability result is “poor bioavailability”. Moreover, in series [8], the Solubility in water result is given as “poor solubility in water”.

Consider `COc1cc(/C=C/c2ccc(O)cc2)cc(OC)c1.Cn1c(=O)c2c(ncn2C)n(C)c1=O` [cocrystal 1 (Form I), pterostilbene:caffeine], for which the “Results (form by XRPD)” value in series [3] (75% RH, 1 week) was “cocrystal 1 (Form I), no caffeine hydrate”; in series [3] (75% RH, 1 week, additional stress at 98% RH), “cocrystal 1 (Form I), no caffeine hydrate”; in series [3] (75% RH, 4 weeks) it was “cocrystal 1 (Form I), no caffeine hydrate”; in series [3] (75% RH, 1 day), “cocrystal 1 (Form I), no caffeine hydrate”; in series [3] (75% RH, 1 day, additional stress at 98% RH), “cocrystal 1 (Form I), no caffeine hydrate”; in series [3] (75% RH, 3 days), “cocrystal 1 (Form I), no caffeine hydrate”. Also, the “Results (form by XRPD)” value in series [3] (94% RH, 1 week (7 days)) is recorded as “cocrystal 1 (Form I), no caffeine hydrate”; in series [3] (94% RH, 4 weeks), “cocrystal 1 (Form I), no caffeine hydrate”; in series [3] (94% RH, 1 day) it was “cocrystal 1 (Form I), no caffeine hydrate”; in series [3] (94% RH, 3 days), “cocrystal 1 (Form I), no caffeine hydrate”; in series [3] (94% RH, 7 days, additional stress at 98% RH, 4 weeks), “cocrystal 1 (Form I), no caffeine hydrate”. The “Results (form after stress)” value in series [4] (slurry, 2 days) is on record as “cocrystal 1 (Form I), no caffeine hydrate”. In series [4], the “Behaviour upon slurrying in water” value was “precipitation of pterostilbene”.

On to `Cn1c(=O)c2c(ncn2C)n(C)c1=O` [caffeine, reference compound], for which the “Results (form by XRPD)” value in series [3] (75% RH, 1 week) is “caffeine anhydrous”; in series [3] (75% RH, 4 weeks), “caffeine anhydrous”; in series [3] (75% RH, 1 day), “caffeine anhydrous”; in series [3] (75% RH, 3 days), “caffeine anhydrous”; in series [3] (94% RH, 1 week (7 days)), “caffeine hydrate”; in series [3] (94% RH, 4 weeks), “caffeine hydrate”. Besides, the “Results (form by XRPD)” value in series [3] (94% RH, 1 day) is on record as “caffeine anhydrous”; in series [3] (94% RH, 3 days) it was “caffeine anhydrous/caffeine hydrate”; in series [3] (98% RH, 1 week) it was “caffeine hydrate”; in series [3] (98% RH, 4 weeks), “caffeine hydrate”; in series [3] (98% RH, 1 day), “caffeine hydrate”; in series [3] (98% RH, 3 days), “caffeine hydrate”. Moreover, the “Conversion to hydrate” value in series [3] (75% RH, up to four weeks) was “does not display signs of conversion”; in series [3] (94% RH), “between one and three days at 94% RH partial conversion”; in series [3] (98% RH), “converts to caffeine hydrate in less than one day”.
